Measured values published in patent US11840686B2, “Modulation of prekallikrein (PKK) expression” (Ionis Pharmaceuticals, Inc., priority 2013, dated 2023).
Strand notation (5' to 3'): a small letter for the sugar, then the base; units joined by * are phosphorothioate-linked, units joined directly phosphodiester-linked; [ ] holds rarer units or linkages, { } end groups; capitals alone tell only the bases. e = 2'-O-(2-methoxyethyl) (MOE); k = constrained ethyl (cEt); [5mC] = 5-methylcytosine; d = 2'-deoxy (DNA)

Key:
Assay type in all cases: cell-based
[1] = system: human PKK mRNA; assay: Antisense inhibition of human PKK mRNA in HepaRG cells, 3,000 nM (Example 1); conditions: relative to untreated control cells
Protocol: Antisense oligonucleotides were designed targeting a PKK nucleic acid and were tested for their effects on PKK mRNA in vitro. HepaRG™ cells, which are terminally differentiated hepatic cells derived from a human hepatic progenitor cell line and retain many characteristics of primary human hepatocytes (Lubberstedt M. et al., J. Pharmacol. Toxicol. Methods 2011 63: 59-68), were used in the screen.
The chimeric antisense oligonucleotides in the tables below were designed as 5-10-5 MOE gapmers. The gapmers are 20 nucleosides in length, wherein the central gap segment comprises of ten 2′-deoxynucleosides and is flanked by wing segments on the 5′ direction and the 3′ direction comprising five nucleosides each. Each nucleoside in the 5′ wing segment and each nucleoside in the 3′ wing segment has a 2′-O-methoxyethyl modification. The internucleoside linkages throughout each gapmer are phosphorothioate linkages. All cytosine residues throughout each gapmer are 5-methylcytosines. “Start site” indicates the 5′-most nucleoside to which the gapmer is targeted in the human gene sequence. “Stop site” indicates the 3′-most nucleoside to which the gapmer is targeted in the human gene sequence.
Cultured HepaRG™ cells at a density of 20,000 cells per well were transfected using electroporation with 3,000 nM antisense oligonucleotide. After a treatment period of approximately 24 hours, RNA was isolated from the cells and PKK mRNA levels were measured by quantitative real-time PCR. Human primer probe set RTS3454 (forward sequence […], designated herein as SEQ ID NO: 20; reverse sequence […], designated herein as SEQ ID NO: 21; probe sequence […], designated herein as SEQ ID NO: 22) was used to measure mRNA levels. PKK mRNA levels were adjusted according to total RNA content, as measured by RIBOGREEN®. The antisense oligonucleotides were tested in a series of experiments that had similar culture conditions. Results are presented as percent inhibition of PKK, relative to untreated control cells.

[2] = system: human PKK mRNA; assay: Dose-dependent antisense inhibition of human PKK in HepaRG cells, 0.11-3.00 uM (Example 6); conditions: for percent inhibition of PKK mRNA, 0.11 μM / percent inhibition of PKK mRNA, 0.33 μM / percent inhibition of PKK mRNA, 1.00 μM / percent inhibition of PKK mRNA, 3.00 μM: electroporation, approx. 16 hours, relative to untreated control cells; for IC50: 0.11-3.00 μM
Summary of the method: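 Antisense oligonucleotides were tested over 0.11–3.00 μM, delivered by electroporation, with readout after roughly 16 h. Human PKK transcript was measured by real-time PCR (set RTS3454) and adjusted to RIBOGREEN total RNA, giving half-maximal inhibitory concentrations.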

[3] = system: human PKK mRNA; assay: Antisense inhibition of human PKK mRNA in HepaRG cells, 1,000 nM, MOE/deoxy/cEt oligonucleotides (Example 3)
Summary of the method: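 Readout is percent PKK mRNA reduction against untreated controls, by real-time PCR (RTS3454) adjusted for total RNA via RIBOGREEN. Oligonucleotides, phosphorothioate gapmers of 16 nucleosides with cEt, MOE and deoxy sugars, were delivered at 1,000 nM by electroporation to 20,000 HepaRG cells/well for roughly 24 h.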

[4] = Table 20, HepaRG cells, electroporation with 1,000 nM antisense oligonucleotide, approximately 24 hours, PKK mRNA by RT-PCR (RTS3454), relative to untreated control cells
[5] = Table 22 experiment, HepaRG cells, electroporation with 1,000 nM antisense oligonucleotide, approx. 24 hours, PKK mRNA by RT-PCR (RTS3454), relative to untreated control cells
[6] = Table 19, HepaRG cells, electroporation with 1,000 nM antisense oligonucleotide, approximately 24 hours, PKK mRNA by RT-PCR (RTS3454), relative to untreated control cells
[7] = Table 21 experiment, HepaRG cells, electroporation with 1,000 nM antisense oligonucleotide, approx. 24 hours, PKK mRNA by RT-PCR (RTS3454), relative to untreated control cells

531076 (eA*e[5mC]*eT*e[5mC]*eT*d[5mC]*d[5mC]*dA*dT*dG*d[5mC]*dT*dT*dT*dG*e[5mC]*eA*eG*eA*eT; antisense) [compound 531076]
% inhibition ([1]; Table 2, PKK mRNA, HepaRG cells, 3,000 nM, electroporation, ~24 h): 68%

531213 (e[5mC]*eA*eA*eA*eA*dT*dT*dA*dA*dT*dT*dG*dT*dG*d[5mC]*eA*eT*eA*eA*eT; antisense) [compound 531213]
% inhibition ([1]; Table 4, HepaRG cells, electroporation with 3,000 nM antisense oligonucleotide, approx. 24 hours, PKK mRNA by RT-PCR (RTS3454)): 13%

531145 (antisense eG*e[5mC]*e[5mC]*eT*eA*dG*dG*dA*dG*dA*dG*dA*dA*dA*dA*eA*eT*eA*eA*eA) [compound 531145]
% inhibition ([1]; Table 3, HepaRG cells, electroporation with 3,000 nM antisense oligonucleotide, approx. 24 hours, PKK mRNA by RT-PCR (RTS3454)): 0%

530938 (antisense eG*eG*eA*eA*eA*dT*dG*dA*dA*dA*dT*dA*dA*dG*dT*eT*eG*e[5mC]*eT*eT) [compound 530938]
% inhibition ([1]; Table 1, PKK mRNA, HepaRG cells, 3,000 nM, electroporation, ~24 h): 11%

547948 (eA*eG*kG*dA*dA*d[5mC]*dT*dT*dG*dG*dT*dG*dT*kG*k[5mC]*e[5mC]; antisense) [compound 547948]
percent inhibition of PKK mRNA, 0.11 μM [2]: 60% | percent inhibition of PKK mRNA, 0.33 μM [2]: 80% | percent inhibition of PKK mRNA, 1.00 μM [2]: 88% | percent inhibition of PKK mRNA, 3.00 μM [2]: 97% | % inhibition ([3]; HepaRG cells, electroporation with 1,000 nM antisense oligonucleotide, approximately 24 hours, primer probe set RTS3454, relative to untreated control cells, experiment of Table 23): 77%

548557 (antisense eG*eT*kT*dA*d[5mC]*dT*d[5mC]*dT*dG*dT*dG*dA*dT*k[5mC]*k[5mC]*eA) [compound 548557]
IC50 [2]: 400 nM | percent inhibition of PKK mRNA, 0.11 μM [2]: 5% | percent inhibition of PKK mRNA, 0.33 μM [2]: 47% | percent inhibition of PKK mRNA, 1.00 μM [2]: 82% | percent inhibition of PKK mRNA, 3.00 μM [2]: 95% | % inhibition ([3]; HepaRG cells, 1,000 nM antisense oligonucleotide, Table 29): 81%

547862 (antisense eG*eA*k[5mC]*dT*d[5mC]*d[5mC]*dT*d[5mC]*dT*d[5mC]*dA*dT*dA*kT*k[5mC]*eA) [compound 547862]
IC50 [2]: 300 nM | percent inhibition of PKK mRNA, 0.11 μM [2]: 26% | percent inhibition of PKK mRNA, 0.33 μM [2]: 71% | percent inhibition of PKK mRNA, 1.00 μM [2]: 69% | % inhibition [3, 4]: 22% | % inhibition [3, 5]: 88%

547998 (antisense e[5mC]*eT*kT*dG*dT*dG*dT*d[5mC]*d[5mC]*d[5mC]*dA*dT*dA*k[5mC]*kG*e[5mC]) [compound 547998]
percent inhibition of PKK mRNA, 0.11 μM [2]: 55% | percent inhibition of PKK mRNA, 0.33 μM [2]: 73% | percent inhibition of PKK mRNA, 1.00 μM [2]: 91% | percent inhibition of PKK mRNA, 3.00 μM [2]: 91% | % inhibition ([3]; HepaRG cells, electroporation with 1,000 nM antisense oligonucleotide, approximately 24 hours, primer probe set RTS3454, relative to untreated control cells, experiment of Table 24): 82%

548155 (e[5mC]*eG*kT*dG*d[5mC]*dT*dG*dA*dA*dA*dG*d[5mC]*dG*kG*kG*e[5mC]; antisense) [compound 548155]
IC50 [2]: 300 nM | percent inhibition of PKK mRNA, 0.11 μM [2]: 49% | percent inhibition of PKK mRNA, 0.33 μM [2]: 50% | percent inhibition of PKK mRNA, 1.00 μM [2]: 70% | percent inhibition of PKK mRNA, 3.00 μM [2]: 81% | % inhibition ([3]; HepaRG cells, electroporation with 1,000 nM antisense oligonucleotide, approx. 24 hours, PKK mRNA by RT-PCR (RTS3454), relative to untreated control cells, Table 25 experiment): 76%

547843 (antisense e[5mC]*eA*k[5mC]*dT*dT*dA*dT*dT*dT*dG*dA*dT*dG*kA*k[5mC]*e[5mC]) [compound 547843]
IC50 [2]: 400 nM | percent inhibition of PKK mRNA, 0.11 μM [2]: 0% | percent inhibition of PKK mRNA, 0.33 μM [2]: 52% | percent inhibition of PKK mRNA, 1.00 μM [2]: 80% | percent inhibition of PKK mRNA, 3.00 μM [2]: 91% | % inhibition [3, 4]: 83% | % inhibition [3, 5]: 83%

548125 (antisense e[5mC]*eT*kA*dG*dA*d[5mC]*dT*d[5mC]*dT*dG*dG*dA*d[5mC]*kT*kG*e[5mC]) [compound 548125]
IC50 [2]: 300 nM | percent inhibition of PKK mRNA, 0.11 μM [2]: 33% | percent inhibition of PKK mRNA, 0.33 μM [2]: 50% | percent inhibition of PKK mRNA, 1.00 μM [2]: 81% | percent inhibition of PKK mRNA, 3.00 μM [2]: 73% | % inhibition [3, 6]: 89%

548247 (antisense e[5mC]*eG*kA*dT*dT*dT*dT*d[5mC]*d[5mC]*dA*dT*dG*d[5mC]*kA*kT*eA) [compound 548247]
IC50 [2]: 500 nM | percent inhibition of PKK mRNA, 0.11 μM [2]: 16% | percent inhibition of PKK mRNA, 0.33 μM [2]: 50% | percent inhibition of PKK mRNA, 1.00 μM [2]: 62% | percent inhibition of PKK mRNA, 3.00 μM [2]: 82% | % inhibition ([3]; HepaRG cells, electroporation with 1,000 nM antisense oligonucleotide, approx. 24 hours, PKK mRNA by RT-PCR (RTS3454), relative to untreated control cells, Table 26 experiment): 56%

547870 (antisense e[5mC]*eT*kA*dA*d[5mC]*d[5mC]*dT*dT*dA*dG*dA*d[5mC]*dA*k[5mC]*kA*eT) [compound 547870]
IC50 [2]: 600 nM | percent inhibition of PKK mRNA, 0.11 μM [2]: 0% | percent inhibition of PKK mRNA, 0.33 μM [2]: 44% | percent inhibition of PKK mRNA, 1.00 μM [2]: 80% | percent inhibition of PKK mRNA, 3.00 μM [2]: 97% | % inhibition [3, 4]: 89% | % inhibition [3, 5]: 83%

547859 (antisense e[5mC]*e[5mC]*kT*d[5mC]*dT*d[5mC]*dA*dT*dA*dT*d[5mC]*dA*dA*k[5mC]*kT*e[5mC]) [compound 547859]
IC50 [2]: 300 nM | percent inhibition of PKK mRNA, 0.11 μM [2]: 29% | percent inhibition of PKK mRNA, 0.33 μM [2]: 56% | percent inhibition of PKK mRNA, 1.00 μM [2]: 83% | percent inhibition of PKK mRNA, 3.00 μM [2]: 78% | % inhibition [3, 4]: 77% | % inhibition [3, 5]: 88%

548147 (e[5mC]*eG*kT*d[5mC]*d[5mC]*dT*dT*dA*dG*dG*dA*dT*dG*k[5mC]*kA*eA; antisense) [compound 548147]
percent inhibition of PKK mRNA, 0.11 μM [2]: 59% | percent inhibition of PKK mRNA, 0.33 μM [2]: 94% | percent inhibition of PKK mRNA, 1.00 μM [2]: 80% | % inhibition [3, 6]: 81%

547808 (e[5mC]*eA*kT*d[5mC]*dT*dG*dG*d[5mC]*dA*dG*dT*dA*dT*kT*kG*eG; antisense) [compound 547808]
IC50 [2]: 1100 nM | percent inhibition of PKK mRNA, 0.11 μM [2]: 19% | percent inhibition of PKK mRNA, 0.33 μM [2]: 22% | percent inhibition of PKK mRNA, 1.00 μM [2]: 48% | percent inhibition of PKK mRNA, 3.00 μM [2]: 71% | % inhibition [3, 7]: 56%

547824 (e[5mC]*eG*kA*dT*dG*dT*dA*d[5mC]*dT*dT*dT*dT*dG*kG*k[5mC]*eA; antisense) [compound 547824]
percent inhibition of PKK mRNA, 0.11 μM [2]: 45% | percent inhibition of PKK mRNA, 0.33 μM [2]: 73% | percent inhibition of PKK mRNA, 1.00 μM [2]: 78% | % inhibition [3, 7]: 82%

548343 (antisense eT*eA*kG*dT*dG*dA*dT*dA*dA*dG*dA*dG*d[5mC]*kT*kG*eG) [compound 548343]
percent inhibition of PKK mRNA, 0.11 μM [2]: 61% | percent inhibition of PKK mRNA, 0.33 μM [2]: 67% | percent inhibition of PKK mRNA, 1.00 μM [2]: 88% | percent inhibition of PKK mRNA, 3.00 μM [2]: 92% | % inhibition ([3]; Table 27, HepaRG cells, 1,000 nM antisense oligonucleotide, human PKK mRNA): 78%

548667 (antisense eT*eG*kG*d[5mC]*dA*dA*dG*d[5mC]*dT*dA*d[5mC]*d[5mC]*dT*kT*k[5mC]*eT) [compound 548667]
IC50 [2]: 700 nM | percent inhibition of PKK mRNA, 0.11 μM [2]: 0% | percent inhibition of PKK mRNA, 0.33 μM [2]: 37% | percent inhibition of PKK mRNA, 1.00 μM [2]: 73% | percent inhibition of PKK mRNA, 3.00 μM [2]: 86% | % inhibition ([3]; PKK mRNA, HepaRG cells, 1,000 nM antisense oligonucleotide, Table 31): 51%

548109 (antisense eG*e[5mC]*kA*dT*d[5mC]*dT*dG*dA*dG*d[5mC]*dT*dT*dT*kT*k[5mC]*e[5mC]) [compound 548109]
percent inhibition of PKK mRNA, 0.11 μM [2]: 50% | percent inhibition of PKK mRNA, 0.33 μM [2]: 92% | percent inhibition of PKK mRNA, 1.00 μM [2]: 79% | percent inhibition of PKK mRNA, 3.00 μM [2]: 85% | % inhibition [3, 6]: 77%
